{"source": "the kinase profiling compilation of Christmann-Franck et al. (2016)", "assay_in_all_cases": "KINOMEscan competition binding", "settings_in_all_cases": "compound 2.0 µM", "key": {"AAK1 (human)": {"target": "AAK1 (human) (UniProt Q2M2I8)"}, "ANKK1 (human)": {"target": "ANKK1 (human) (UniProt Q8NFD2)"}, "AURKB (human)": {"target": "AURKB (human) (UniProt Q96GD4)", "sequence (Q96GD4 whole entry, looked up)": "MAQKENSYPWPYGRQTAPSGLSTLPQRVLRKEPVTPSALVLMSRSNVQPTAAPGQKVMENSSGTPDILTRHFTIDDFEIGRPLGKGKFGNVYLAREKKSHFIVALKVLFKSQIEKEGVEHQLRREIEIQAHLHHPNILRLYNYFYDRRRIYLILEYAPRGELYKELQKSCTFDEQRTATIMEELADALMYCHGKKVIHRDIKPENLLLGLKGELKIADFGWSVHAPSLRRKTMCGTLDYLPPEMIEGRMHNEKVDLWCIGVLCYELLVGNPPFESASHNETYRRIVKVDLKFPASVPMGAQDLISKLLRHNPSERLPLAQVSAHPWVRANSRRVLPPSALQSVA"}, "BRSK1 (human)": {"target": "BRSK1 (human) (UniProt Q8TDC3)"}, "CAMK2D (human)": {"target": "CAMK2D (human) (UniProt Q13557)"}, "CASK (human)": {"target": "CASK (human) (UniProt O14936)"}, "CDKL2 (human)": {"target": "CDKL2 (human) (UniProt Q92772)"}, "CDKL3 (human)": {"target": "CDKL3 (human) (UniProt Q8IVW4)"}, "CHEK2 (human)": {"target": "CHEK2 (human) (UniProt O96017)", "sequence (O96017 whole entry, looked up)": "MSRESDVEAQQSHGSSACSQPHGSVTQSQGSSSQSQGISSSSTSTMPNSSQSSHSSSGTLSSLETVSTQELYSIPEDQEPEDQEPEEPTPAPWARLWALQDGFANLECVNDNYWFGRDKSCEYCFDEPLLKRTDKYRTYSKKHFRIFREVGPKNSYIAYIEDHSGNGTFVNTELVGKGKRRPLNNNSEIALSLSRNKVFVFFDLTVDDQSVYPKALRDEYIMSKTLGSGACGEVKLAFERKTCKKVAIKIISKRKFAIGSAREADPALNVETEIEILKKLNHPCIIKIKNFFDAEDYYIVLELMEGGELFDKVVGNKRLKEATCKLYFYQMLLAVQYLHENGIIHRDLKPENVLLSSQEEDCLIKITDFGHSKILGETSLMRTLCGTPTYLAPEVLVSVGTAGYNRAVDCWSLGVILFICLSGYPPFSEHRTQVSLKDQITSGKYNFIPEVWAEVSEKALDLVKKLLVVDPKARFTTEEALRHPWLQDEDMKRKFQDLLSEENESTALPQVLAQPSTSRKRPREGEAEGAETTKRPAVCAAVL"}, "CSF1R (human)": {"target": "CSF1R (human) (UniProt P07333)"}, "CSNK1A1 (human)": {"target": "CSNK1A1 (human) (UniProt P48729)", "sequence (P48729 whole entry, looked up)": "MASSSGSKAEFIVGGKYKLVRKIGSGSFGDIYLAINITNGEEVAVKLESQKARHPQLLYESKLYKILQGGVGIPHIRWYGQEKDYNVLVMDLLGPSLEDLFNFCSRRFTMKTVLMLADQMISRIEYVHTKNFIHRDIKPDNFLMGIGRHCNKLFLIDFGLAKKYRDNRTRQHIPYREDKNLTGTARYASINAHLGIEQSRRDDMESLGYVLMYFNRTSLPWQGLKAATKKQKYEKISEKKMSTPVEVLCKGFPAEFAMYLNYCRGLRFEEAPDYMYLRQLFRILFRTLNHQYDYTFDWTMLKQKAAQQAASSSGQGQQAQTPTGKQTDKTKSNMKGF"}, "CSNK2A2 (human)": {"target": "CSNK2A2 (human) (UniProt P19784)"}, "DYRK1B (human)": {"target": "DYRK1B (human) (UniProt Q9Y463)", "sequence (Q9Y463 whole entry, looked up)": "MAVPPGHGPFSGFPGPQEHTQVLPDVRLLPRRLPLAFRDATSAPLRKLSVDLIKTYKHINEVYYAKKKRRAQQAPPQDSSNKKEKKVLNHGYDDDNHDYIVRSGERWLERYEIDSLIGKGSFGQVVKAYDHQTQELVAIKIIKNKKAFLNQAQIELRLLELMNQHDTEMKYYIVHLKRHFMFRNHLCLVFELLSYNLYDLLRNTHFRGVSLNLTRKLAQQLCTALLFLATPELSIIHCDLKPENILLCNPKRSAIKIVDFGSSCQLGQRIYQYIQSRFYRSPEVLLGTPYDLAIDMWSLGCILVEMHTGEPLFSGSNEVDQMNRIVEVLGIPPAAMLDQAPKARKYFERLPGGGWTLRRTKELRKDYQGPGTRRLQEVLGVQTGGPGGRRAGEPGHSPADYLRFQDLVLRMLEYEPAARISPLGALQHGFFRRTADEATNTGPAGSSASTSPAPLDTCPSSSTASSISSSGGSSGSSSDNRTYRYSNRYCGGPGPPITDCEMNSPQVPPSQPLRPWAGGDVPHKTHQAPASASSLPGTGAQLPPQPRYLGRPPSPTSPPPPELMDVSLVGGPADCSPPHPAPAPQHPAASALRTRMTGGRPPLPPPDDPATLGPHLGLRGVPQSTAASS"}, "EPHA5 (human)": {"target": "EPHA5 (human) (UniProt P54756)", "sequence (P54756 whole entry, looked up)": "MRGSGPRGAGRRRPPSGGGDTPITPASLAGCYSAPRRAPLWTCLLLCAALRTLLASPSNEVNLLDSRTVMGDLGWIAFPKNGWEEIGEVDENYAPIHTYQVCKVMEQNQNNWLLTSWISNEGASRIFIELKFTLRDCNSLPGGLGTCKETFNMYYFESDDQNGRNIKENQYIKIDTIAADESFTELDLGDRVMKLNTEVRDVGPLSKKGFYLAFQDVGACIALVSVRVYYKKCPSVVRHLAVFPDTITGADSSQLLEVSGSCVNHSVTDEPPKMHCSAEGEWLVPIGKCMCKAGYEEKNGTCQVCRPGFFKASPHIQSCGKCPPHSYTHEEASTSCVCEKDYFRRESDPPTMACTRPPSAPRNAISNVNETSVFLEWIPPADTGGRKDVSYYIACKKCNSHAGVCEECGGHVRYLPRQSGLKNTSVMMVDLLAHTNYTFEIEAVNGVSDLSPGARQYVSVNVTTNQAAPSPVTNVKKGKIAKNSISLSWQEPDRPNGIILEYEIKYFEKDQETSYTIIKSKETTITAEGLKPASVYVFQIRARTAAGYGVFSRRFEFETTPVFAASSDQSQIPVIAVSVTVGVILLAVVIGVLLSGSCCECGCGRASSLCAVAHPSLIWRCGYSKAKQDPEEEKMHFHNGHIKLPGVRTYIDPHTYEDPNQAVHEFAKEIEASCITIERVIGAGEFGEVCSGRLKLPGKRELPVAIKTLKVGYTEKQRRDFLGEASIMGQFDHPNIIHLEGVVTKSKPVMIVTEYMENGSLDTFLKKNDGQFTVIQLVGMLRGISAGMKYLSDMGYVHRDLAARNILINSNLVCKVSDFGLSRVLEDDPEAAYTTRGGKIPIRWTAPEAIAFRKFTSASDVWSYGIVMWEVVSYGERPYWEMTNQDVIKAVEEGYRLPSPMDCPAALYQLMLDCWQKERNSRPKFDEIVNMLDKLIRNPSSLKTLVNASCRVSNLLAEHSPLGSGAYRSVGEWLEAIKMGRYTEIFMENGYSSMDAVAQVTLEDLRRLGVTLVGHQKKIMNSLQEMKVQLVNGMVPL"}, "EPHA8 (human)": {"target": "EPHA8 (human) (UniProt P29322)"}, "ERBB4 (human)": {"target": "ERBB4 (human) (UniProt Q15303)"}, "IGF1R (human)": {"target": "IGF1R (human) (UniProt P08069)"}, "LYN (human)": {"target": "LYN (human) (UniProt P07948)"}, "MAP3K2 (human)": {"target": "MAP3K2 (human) (UniProt Q9Y2U5)"}, "MAP3K6 (human)": {"target": "MAP3K6 (human) (UniProt O95382)"}, "MAP3K9 (human)": {"target": "MAP3K9 (human) (UniProt P80192)"}, "MAPK14 (human)": {"target": "MAPK14 (human) (UniProt Q16539)"}, "MAST1 (human)": {"target": "MAST1 (human) (UniProt Q9Y2H9)"}, "MYLK3 (human)": {"target": "MYLK3 (human) (UniProt Q32MK0)"}, "MYLK4 (human)": {"target": "MYLK4 (human) (UniProt Q86YV6)"}, "NEK11 (human)": {"target": "NEK11 (human) (UniProt Q8NG66)", "sequence (Q8NG66 whole entry, looked up)": "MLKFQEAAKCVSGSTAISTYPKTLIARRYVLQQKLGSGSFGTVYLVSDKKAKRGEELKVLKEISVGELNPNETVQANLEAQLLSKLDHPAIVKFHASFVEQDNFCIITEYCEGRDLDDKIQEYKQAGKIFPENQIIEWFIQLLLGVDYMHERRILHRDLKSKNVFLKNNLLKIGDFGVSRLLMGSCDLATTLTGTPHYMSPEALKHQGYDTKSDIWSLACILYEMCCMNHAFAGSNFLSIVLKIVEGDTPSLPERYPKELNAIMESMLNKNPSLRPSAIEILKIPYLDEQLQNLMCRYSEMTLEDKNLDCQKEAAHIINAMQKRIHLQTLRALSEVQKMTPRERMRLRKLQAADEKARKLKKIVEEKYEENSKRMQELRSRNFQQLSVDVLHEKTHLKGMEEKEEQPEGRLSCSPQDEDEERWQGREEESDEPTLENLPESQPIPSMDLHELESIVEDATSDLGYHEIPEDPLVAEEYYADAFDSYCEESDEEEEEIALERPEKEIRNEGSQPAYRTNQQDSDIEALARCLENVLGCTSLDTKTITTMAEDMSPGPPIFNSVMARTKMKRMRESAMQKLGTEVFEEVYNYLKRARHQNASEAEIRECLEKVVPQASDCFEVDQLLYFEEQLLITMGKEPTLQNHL"}, "NEK6 (human)": {"target": "NEK6 (human) (UniProt Q9HC98)"}, "PDGFRB (human)": {"target": "PDGFRB (human) (UniProt P09619)"}, "PI4KB (human)": {"target": "PI4KB (human) (UniProt Q9UBF8)"}, "PRKCE (human)": {"target": "PRKCE (human) (UniProt Q02156)"}, "PRKD2 (human)": {"target": "PRKD2 (human) (UniProt Q9BZL6)"}, "RPS6KA1 KD2 (human)": {"target": "RPS6KA1 KD2 (human) (UniProt Q15418)"}, "SBK1 (human)": {"target": "SBK1 (human) (UniProt Q52WX2)"}, "SRPK1 (human)": {"target": "SRPK1 (human) (UniProt Q96SB4)", "sequence (Q96SB4 whole entry, looked up)": "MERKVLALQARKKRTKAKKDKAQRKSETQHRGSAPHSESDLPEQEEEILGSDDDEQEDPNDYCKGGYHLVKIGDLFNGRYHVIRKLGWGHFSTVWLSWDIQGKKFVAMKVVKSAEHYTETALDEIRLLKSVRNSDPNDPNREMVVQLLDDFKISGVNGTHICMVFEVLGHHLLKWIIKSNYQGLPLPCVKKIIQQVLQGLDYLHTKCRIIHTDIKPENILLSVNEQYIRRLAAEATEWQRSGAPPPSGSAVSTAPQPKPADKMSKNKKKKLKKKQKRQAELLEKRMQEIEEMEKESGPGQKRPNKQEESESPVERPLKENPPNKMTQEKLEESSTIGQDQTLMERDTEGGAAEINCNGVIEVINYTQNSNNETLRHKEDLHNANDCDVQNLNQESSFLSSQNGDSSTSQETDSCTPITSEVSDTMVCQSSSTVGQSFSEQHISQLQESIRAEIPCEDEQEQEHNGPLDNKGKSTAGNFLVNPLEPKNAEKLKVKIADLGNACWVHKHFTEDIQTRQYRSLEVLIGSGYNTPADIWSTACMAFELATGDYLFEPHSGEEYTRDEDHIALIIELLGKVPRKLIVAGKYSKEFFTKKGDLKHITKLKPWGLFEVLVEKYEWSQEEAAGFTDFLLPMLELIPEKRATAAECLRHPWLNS"}, "SRPK3 (human)": {"target": "SRPK3 (human) (UniProt Q9UPE1)", "sequence (Q9UPE1 whole entry, looked up)": "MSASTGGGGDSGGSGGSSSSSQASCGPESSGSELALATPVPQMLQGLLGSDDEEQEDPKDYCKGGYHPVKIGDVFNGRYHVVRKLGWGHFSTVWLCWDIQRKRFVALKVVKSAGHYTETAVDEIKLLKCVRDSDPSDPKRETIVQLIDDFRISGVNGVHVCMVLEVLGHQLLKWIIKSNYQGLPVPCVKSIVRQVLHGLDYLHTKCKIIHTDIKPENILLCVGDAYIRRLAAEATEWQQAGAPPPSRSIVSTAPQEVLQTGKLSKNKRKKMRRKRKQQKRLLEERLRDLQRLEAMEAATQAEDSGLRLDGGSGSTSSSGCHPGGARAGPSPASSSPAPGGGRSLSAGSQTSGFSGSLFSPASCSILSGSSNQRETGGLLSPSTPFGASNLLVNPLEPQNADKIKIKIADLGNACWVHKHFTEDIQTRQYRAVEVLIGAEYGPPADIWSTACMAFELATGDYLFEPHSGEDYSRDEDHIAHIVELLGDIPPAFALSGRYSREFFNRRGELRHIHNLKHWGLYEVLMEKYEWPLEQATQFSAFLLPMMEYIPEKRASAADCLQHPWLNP"}, "STK32B (human)": {"target": "STK32B (human) (UniProt Q9NY57)"}, "STK35 (human)": {"target": "STK35 (human) (UniProt Q8TDR2)"}, "STK36 (human)": {"target": "STK36 (human) (UniProt Q9NRP7)"}, "SYK (human)": {"target": "SYK (human) (UniProt P43405)"}, "TNK1 (human)": {"target": "TNK1 (human) (UniProt Q13470)"}, "TNNI3K (human)": {"target": "TNNI3K (human) (UniProt Q59H18)"}, "TRPM6 (human)": {"target": "TRPM6 (human) (UniProt Q9BX84)"}, "WEE2 (human)": {"target": "WEE2 (human) (UniProt P0C1S8)"}}}
{"smiles": "N#Cc1ccc2ncnc(NCCc3ccc4ccccc4c3)c2c1", "values": [{"measurement": "kinase still bound, per cent of control", "setting": "AAK1 (human)", "result": 86, "unit": "%"}, {"measurement": "kinase still bound, per cent of control", "setting": "ANKK1 (human)", "result": 100, "unit": "%"}, {"measurement": "kinase still bound, per cent of control", "setting": "AURKB (human)", "result": 79, "unit": "%"}, {"measurement": "kinase still bound, per cent of control", "setting": "BRSK1 (human)", "result": 100, "unit": "%"}, {"measurement": "kinase still bound, per cent of control", "setting": "CAMK2D (human)", "result": 100, "unit": "%"}, {"measurement": "kinase still bound, per cent of control", "setting": "CASK (human)", "result": 100, "unit": "%"}, {"measurement": "kinase still bound, per cent of control", "setting": "CDKL2 (human)", "result": 71, "unit": "%"}, {"measurement": "kinase still bound, per cent of control", "setting": "CDKL3 (human)", "result": 100, "unit": "%"}, {"measurement": "kinase still bound, per cent of control", "setting": "CHEK2 (human)", "result": 62, "unit": "%"}, {"measurement": "kinase still bound, per cent of control", "setting": "CSF1R (human)", "result": 77, "unit": "%"}, {"measurement": "kinase still bound, per cent of control", "setting": "CSNK1A1 (human)", "result": 87, "unit": "%"}, {"measurement": "kinase still bound, per cent of control", "setting": "CSNK2A2 (human)", "result": 74, "unit": "%"}, {"measurement": "kinase still bound, per cent of control", "setting": "DYRK1B (human)", "result": 96, "unit": "%"}, {"measurement": "kinase still bound, per cent of control", "setting": "EPHA5 (human)", "result": 100, "unit": "%"}, {"measurement": "kinase still bound, per cent of control", "setting": "EPHA8 (human)", "result": 87, "unit": "%"}, {"measurement": "kinase still bound, per cent of control", "setting": "ERBB4 (human)", "result": 98, "unit": "%"}, {"measurement": "kinase still bound, per cent of control", "setting": "IGF1R (human)", "result": 100, "unit": "%"}, {"measurement": "kinase still bound, per cent of control", "setting": "LYN (human)", "result": 99, "unit": "%"}, {"measurement": "kinase still bound, per cent of control", "setting": "MAP3K2 (human)", "result": 80, "unit": "%"}, {"measurement": "kinase still bound, per cent of control", "setting": "MAP3K6 (human)", "result": 100, "unit": "%"}, {"measurement": "kinase still bound, per cent of control", "setting": "MAP3K9 (human)", "result": 85, "unit": "%"}, {"measurement": "kinase still bound, per cent of control", "setting": "MAPK14 (human)", "result": 100, "unit": "%"}, {"measurement": "kinase still bound, per cent of control", "setting": "MAST1 (human)", "result": 84, "unit": "%"}, {"measurement": "kinase still bound, per cent of control", "setting": "MYLK3 (human)", "result": 79, "unit": "%"}, {"measurement": "kinase still bound, per cent of control", "setting": "MYLK4 (human)", "result": 81, "unit": "%"}, {"measurement": "kinase still bound, per cent of control", "setting": "NEK11 (human)", "result": 99, "unit": "%"}, {"measurement": "kinase still bound, per cent of control", "setting": "NEK6 (human)", "result": 96, "unit": "%"}, {"measurement": "kinase still bound, per cent of control", "setting": "PDGFRB (human)", "result": 100, "unit": "%"}, {"measurement": "kinase still bound, per cent of control", "setting": "PI4KB (human)", "result": 95, "unit": "%"}, {"measurement": "kinase still bound, per cent of control", "setting": "PRKCE (human)", "result": 100, "unit": "%"}, {"measurement": "kinase still bound, per cent of control", "setting": "PRKD2 (human)", "result": 73, "unit": "%"}, {"measurement": "kinase still bound, per cent of control", "setting": "RPS6KA1 KD2 (human)", "result": 88, "unit": "%"}, {"measurement": "kinase still bound, per cent of control", "setting": "SBK1 (human)", "result": 100, "unit": "%"}, {"measurement": "kinase still bound, per cent of control", "setting": "SRPK1 (human)", "result": 100, "unit": "%"}, {"measurement": "kinase still bound, per cent of control", "setting": "SRPK3 (human)", "result": 86, "unit": "%"}, {"measurement": "kinase still bound, per cent of control", "setting": "STK32B (human)", "result": 97, "unit": "%"}, {"measurement": "kinase still bound, per cent of control", "setting": "STK35 (human)", "result": 100, "unit": "%"}, {"measurement": "kinase still bound, per cent of control", "setting": "STK36 (human)", "result": 100, "unit": "%"}, {"measurement": "kinase still bound, per cent of control", "setting": "SYK (human)", "result": 100, "unit": "%"}, {"measurement": "kinase still bound, per cent of control", "setting": "TNK1 (human)", "result": 90, "unit": "%"}, {"measurement": "kinase still bound, per cent of control", "setting": "TNNI3K (human)", "result": 100, "unit": "%"}, {"measurement": "kinase still bound, per cent of control", "setting": "TRPM6 (human)", "result": 100, "unit": "%"}, {"measurement": "kinase still bound, per cent of control", "setting": "WEE2 (human)", "result": 65, "unit": "%"}]}
